Patent publication US12303498B2, “ALK5 inhibitors as skeletal muscle hypertrophy inducers” (CYTOO, priority 2018, dated 2025)
pEC50: −log10 of the molar value. Where two headings read alike, the source gives them in different places. Blank lines part the entries; values can stand above or below the compound they belong to.

What was measured:
[1] = test system: Human primary myoblasts (healthy donors 3, 1 and 5); test: MyoScreen hypertrophy assay on myotubes from healthy donors; format: cell-based; settings: for pEC50 / activity at 10 µM: Homo sapiens, Myoblast
Method: (§1) Healthy donor primary skeletal cells (Donor 1, Donor 3 and Donor 5) were Clonetics™ Human Skeletal Muscle Myoblasts (HSMM). In addition, cells from three DMD (Duchenne muscular dystrophy) donors (Donor Z, W and D1) and from a healthy donor (Donor A) were sourced.
(§2) Hypertrophy and Atrophy Rescue assays were performed using an in vitro fully automated human myotube model called MyoScreen™ (Cytoo, France). This model relies on a tight control of the microenvironment that guides the differentiation of human primary myoblasts. Myotubes formed on MyoScreen™ micropatterns present a high level of maturation together with a highly standardized morphology.
(§3) Human primary myoblasts from donors were seeded in MyoScreen™ micropatterned 96-well plates (Cytoo, France), let them adhere for 24 h in growth medium, then run the differentiation in a low horse serum medium for at least 5 days.
(§4) At Day 0, MyoScreen™ plates (Cytoo, France) containing micropatterns were pre-filled with 200 μl/well of growth medium and stored in the incubator at 37° C. Human primary myoblasts were detached from the flasks, count, and seeded into the plates with 15 000 cells per well in 100 μl of growth medium.
(§5) At Day 1, the growth medium was changed for a differentiation medium, 300 μl/well (DMEM with 0.1% horse serum) in which myoblasts started differentiating and forming myotubes.
(§6) At Day 2, the differentiation medium was changed. Then candidate compounds were diluted with differentiation medium and transferred into the plate. The final concentration of DMSO should be not higher than 0.1%. At least 6 wells were treated with the vehicle as a basal control, and 6 wells were treated with IGF-1 at 100 ng/ml as positive hypertrophy control.
(§7) At Day 6, cells were fixed with formalin 5% for 30 min at room temperature, then permeabilized with Triton X-100 at 0.1% in PBS for 15 min, and blocked with PBS+BSA 1% for 20 minutes. Myotubes were incubated with first antibody against Troponin T in blocking buffer for 1 h30, washed three times with PBS, incubated with secondary antibody and Hoescht ( 1/10000) for 1 h30, and washed three times with PBS.
(§8) Images were acquired at 10× magnification with an Operetta High Content Imaging System. Image processing and analysis were performed with dedicated algorithms developed on the Acapella High Content Imaging Software (Perkin Elmer) by CYTOO. Eleven fields per well were acquired.
First, segmentation of myotubes and nuclei were done using respectively the Troponin T staining intensity and the Hoechst staining. […] The threshold of segmentation was set-up in order to avoid detecting the background noise and eliminate aberrant small myotube structures.
(§9) Then, an image clean-up step was performed on the Troponin T images in order to remove myotubes that touch the border of the image. The final valid myotubes were used to extract myotube morphology parameters including the myotube width and area, and the number of nuclei per myotube.
Nuclei Count, Fusion Index, Mean myotube Area and Number of nuclei per myotube have been validated as relevant and sensitive readouts of myotube differentiation as well as atrophic and hypertrophic induction.
A primary screening was run to identify hypertrophy compounds that increase the myotube differentiation and size. Candidate compounds were tested at 10 μM in monoplicate on Donor 3 cells.
A retest was run, by cherry picking (same compound batch as primary screening): each hit was tested in the same conditions as in the Primary Screening (Donor 3, 10 μM) in six well replicates.

[2] = test system: cells from DMD donors (Donor Z, W and D1); test: MyoScreen hypertrophy assay on myotubes from DMD donors; format: cell-based, human; settings: fusion index (compound)*100/basal control; for Donor W (% Activity): DMD Donor W; for Donor Z (% Activity): DMD Donor Z; for Donor D1 (% Activity): DMD Donor D1
Method: as §1, §2, §3, §4, §5, §6, §7, §8
(§10) First, segmentation of myotubes and nuclei were done using respectively the Troponin T staining intensity and the Hoechst staining. One to two myotubes per micropattern were usually identified (a myotube is a troponin T staining area that includes at least 2 nuclei). The threshold of segmentation was set-up in order to avoid detecting the background noise and eliminate aberrant small myotube structures. At the end of this first step, specific readouts were calculated in the whole well, like the nuclei count and the fusion index (percentage of nuclei included in troponin T staining) Usually around 50 to 60 myotubes were detected per well in a control condition.
as §9

[3] = test system: Donor Z (DMD donor) myotubes; test: Hypertrophy assay, combinations ALK5 inhibitor and glucocorticoid; format: cell-based, human; settings: 4 days of treatment, prednisolone 10 nM, RepSox or GW788388 300 nM, alone or combined
[4] = test system: AChR clusters in MyoScreen myotubes; test: Acetylcholine receptor clustering assay; format: cell-based, human; settings: 8 days of differentiation including 7 days of drug treatment; for total AChR area increase: vs control myotubes
Method: The MyoScreen™ protocol was performed as described in the Hypertrophy and Atrophy rescue assay described in Example 1 but was stopped at Day 9 instead of Day 6. At the end of the assay, AchR were immunostained using a specific antibody in addition to Troponin T and nuclei. Images were acquired at ×20 with an Operetta High Content Imaging System from Perkin Elmer. Image processing and analyses were performed with a dedicated algorithm developed on the Acapella High Content Imaging Software (Perkin Elmer). Specific readouts were calculated in each well: nuclei count and myotube fusion index, number of AchR, AchR mean area, AchR total area normalized by the myotube total area.
Remarkably, when labeled with a specific anti-AChR antibody, MyoScreen myotubes at 6 days post-differentiation display AChR clusters punctuated along the sarcolemma membrane in the middle of the myotube fibre and in distinct regions at the ends of myotubes. To develop an automated AChR cluster assay, an AChR detection routine was developed that was sensitive and robust enough to analyze aggregate number and size clusters in images using the Operetta/Acapella system.

[5] = test system: Myotubes from Donors 5 and A
Excerpt: Cells were washed with calcium buffer containing (in mM): 130 NaCl, 5.4 KCl, 1.8 CaCl2, 0.8 MgCl2, 5.6 D-glucose, 10 Hepes, pH 7.4. […] After washing to remove unloaded dye, myotube responses to electrical stimulation pulses were monitored using the FDSS/μCELL/EFS from Hamamatsu Photonics. Twitch stimulations were run at 0.2 Hz with pulse width 50 ms 5V for 60 seconds. Tetanus stimulation was run at 30 Hz with pulse width 15 ms 3V for 20 seconds. The Fluo-4 total fluorescence intensity is measured in each well. For data presentation, fluorescence intensities (F) were normalized to the mean intensity of the first timepoints (F/F0).

ACh-stimulated myotubes = test: Calcium flux assay after ACh stimulation; format: cell-based, human; settings: for increase in [Ca2+]i peak amplitude compared to control myotubes: 20 μM ACh stimulation, myotubes differentiated 8 days, 7 days with compound
Method: Cells were then incubated for 1 h with 2 μM Fluo-4 AM (F14201-Invitrogen) in an incubator (37° C., 5% CO2). After washing to remove unloaded dye, myotube responses to 20 μM ACh (A6625-Sigma-Aldrich), were videoimaged. Stream acquisitions were set at 1 sec intervals and one field of view was acquired per well. Images were processed and analyzed automatically using a dedicated software developed in-house integrating the open-source ImageJ framework. The image analysis tool segments the myotubes in images acquired in the same well. The Fluo-4 total fluorescence intensity was measured inside each myotube and corrected for background. The total intensity was normalized to the myotube area to obtain the mean fluorescence intensity readout.

[6] = test system: Myotubes from the healthy donor 3 atrophied by TNF-α, IL-1β, Myostatin, TGF-β or dexamethasone; test: Atrophy rescue assay (MyoScreen); format: cell-based, human; set-up: key: +++: total rescue; ++: partial rescue; +: low rescue; settings: for atrophy rescue, IL-1: atrophy inducer IL-1β 25 ng/mL; for atrophy rescue, TGF-β: atrophy inducer TGF-β 0.5 ng/mL; for atrophy rescue, TNF-alpha: atrophy inducer TNF-α 2 ng/mL; for atrophy rescue, dexamethasone: atrophy inducer dexamethasone 100 μM; for atrophy rescue, Myostatin: atrophy inducer myostatin 150 ng/mL
Method: as §2, §3, §4, §5, §6
For Atrophy Rescue assay, one hour after candidate compound addition, atrophy inducers were added at the following final concentration: 150 ng/mL of myostatin, 25 ng/mL of IL-1β, 2 ng/mL of TNF-α, 0.5 ng/mL of TGF-β and 100 μM of dexamethasone.
as §7, §8, §10, §9
Atrophy Rescue assays were performed in triplicate in the presence of atrophy inducers, i.e. TNF-α, IL-1β, Myostatin, TGF-β and dexamethasone.
Atrophy rescue assays was performed for RepSox. Myotubes from the healthy donor 3 were atrophied using different inducers: TNF-α, IL-1β, Myostatin, TGF-β and dexamethasone.

[7] = test system: myotubes stimulated with 100 μM ACh; test: Contractile activity assay; format: cell-based, human; settings: 5 days of differentiation including 4 days (96 h) treatment, RepSox 2 μM
Method: Cells were washed with calcium buffer as above. Myotube contraction was induced by addition of 100 μM ACh for 3 mins after which myotubes were fixed and immunostained with troponin T antibody. Automated acquisition was performed on the Operetta platform with a x10/0.3 NA objective. Detaching myotubes were automatically detected and quantified using Acapella, based on the detection of high intensity regions within the edges of segmented myotubes that mark the spots where the myotubes detached.

[8] = second dose response assay, healthy Donor 3, read-out: EC50
[9] = second dose response assay, healthy Donor 3
[10] = first dose response assay, healthy Donor 1
[11] = first dose response assay, healthy Donor 3
[12] = first dose response assay, healthy Donor 5

Compound: Cc1cccc(-c2nn(C(=S)Nc3ccccc3)cc2-c2ccnc3ccccc23)n1 [A 83-01]
pEC50 [1, 8]: 8.00
% Activity [1, 9]: 127%

Compound: NC(=O)c1ccc(-c2nc(-c3ccccn3)c(-c3ccc4c(c3)OCCO4)[nH]2)cc1 [D 4476]
pEC50 [1, 8]: > 9.00
% Activity [1, 9]: 128%

Compound: O=C(NC1CCOCC1)c1ccc(-c2cc(-c3c[nH]nc3-c3ccccn3)ccn2)cc1 [GW 788388]
Donor W (% Activity) [2]: 118%
Donor Z (% Activity) [2]: 196%
pEC50 [1, 8]: 7.06
% Activity [1, 9]: 130%

Compound: c1ccc(-c2n[nH]cc2-c2ccnc3ccccc23)nc1 [LY 364947]
pEC50 [1, 8]: 7.60

Compound: C[C@]12C=CC(=O)C=C1CC[C@@H]1[C@@H]2[C@@H](O)C[C@@]2(C)[C@H]1CC[C@]2(O)C(=O)CO [Prednisolone, prednisolone]
increase in Fusion index [3]: 25%
increase in Myotube mean area [3]: does not enhance significantly

Compound: Cc1cccc(-c2n[nH]cc2-c2ccc(F)c(-c3cnn(CCO)c3)c2)n1 [R268712]
pEC50 [1, 8]: 9.00
% Activity [1, 9]: 132%

Compound: Cc1cccc(-c2n[nH]cc2-c2ccc3ncccc3n2)n1 [RepSox]
Donor D1 (% Activity) [2]: 210%
Donor W (% Activity) [2]: 120%
Donor Z (% Activity) [2]: 176%
AChR clusters [4]: substantially more AChR clusters
total AChR area increase [4]: 6 fold
tetanus response ([5]; Donor 5 myotubes, RepSox 3 to 500 nM, tetanus stimulation 30 Hz, vs Control myotubes): increases with RepSox concentrations
calcium peak amplitude on repeated twitch electrical stimulations ([5]; Donor A and Donor 5 myotubes, RepSox 300 nM for 5 days, twitch 0.2 Hz): twice higher
increase in Fusion index [3]: 100%
increase in Myotube mean area [3]: 68%
increase in [Ca2+]i peak amplitude compared to control myotubes (ACh-stimulated myotubes): 1.56 fold
number of retracting myotubes after ACh stimulation (ACh-stimulated myotubes; calcium flux time-lapse videos): marked increase
activity in dose responses on three healthy donors ([1]; Donors 3, 5 and 1): active on all donors
pEC50 ([1]; first dose response assay, healthy Donor 1, read-out: Donor 1 EC50): 6.25
pEC50 ([1]; first dose response assay, healthy Donor 3, read-out: Donor 3 EC50): 8.30
pEC50 ([1]; first dose response assay, healthy Donor 5, read-out: Donor 5 EC50): 8.60
activity at 10 µM ([1]; healthy Donor 3, 10 μM, monoplicate (IGF-1 100 ng/ml), % Activity = Myotube fusion index (compound)*100/Myotube Fusion index (basal control), read-out: Primary screening (% Activity)): 183%
activity at 10 µM ([1]; healthy Donor 3, 10 μM, six well replicates (IGF-1 100 ng/ml), fusion index vs basal control, read-out: Retest (% Activity)): 171%
pEC50 [1, 8]: 8.30
Donor 1 % Activity [1, 10]: 143%
Donor 3 % Activity [1, 11]: 140%
Donor 5 % Activity [1, 12]: 204%
increase in the fusion index or/and myotube area readouts ([1]; primary screening and retest, Donor 3, 10 μM): > 170%
% Activity [1, 9]: 140%
atrophy rescue, IL-1 [6]: ++
atrophy rescue, TGF-β [6]: +++
atrophy rescue, TNF-alpha [6]: ++
atrophy rescue, dexamethasone [6]: +++
atrophy rescue, Myostatin [6]: +++

Compound: Cc1cccc(-c2[nH]c(C(C)(C)C)nc2-c2ccc3c(c2)OCO3)n1 [SB 505124]
pEC50 [1, 8]: > 9.00
% Activity [1, 9]: 136%

Compound: Cc1cccc(-c2nc(C(C)(C)C)[nH]c2-c2ccc3nccnc3c2)n1 [SB 525334]
pEC50 [1, 8]: 8.52
% Activity [1, 9]: 142%

Compound: Fc1ccc(Cl)cc1-c1nc(Nc2ccncc2)c2nccnc2n1 [SD208]
pEC50 [1, 8]: 7.19
% Activity [1, 9]: 138%

total AChR area increase [4]: no effect
Compound: IGF-1: IGF-1 at 100 ng/ml as positive hypertrophy control
Donor D1 (% Activity) [2]: 163%
Donor W (% Activity) [2]: 100%
Donor Z (% Activity) [2]: 143%
increase in Fusion index [3]: 160%
increase in Myotube mean area [3]: 54%
increase in [Ca2+]i peak amplitude compared to control myotubes (ACh-stimulated myotubes): no effect
Donor 1 % Activity [1, 10]: 150%
Donor 3 % Activity [1, 11]: 178%
Donor 5 % Activity [1, 12]: 185%
Primary screening (% Activity) ([1]; healthy Donor 3, 10 μM, monoplicate (IGF-1 100 ng/ml), % Activity = Myotube fusion index (compound)*100/Myotube Fusion index (basal control)): 210%
Retest (% Activity) ([1]; healthy Donor 3, 10 μM, six well replicates (IGF-1 100 ng/ml), fusion index vs basal control): 190%
% Activity [1, 9]: 178%
active contractile force (percentage of myotubes that exhibit strong contractions) [7]: 67±5%
atrophy rescue, IL-1 [6]: +++
atrophy rescue, TGF-β [6]: ++
atrophy rescue, TNF-alpha [6]: +++
atrophy rescue, dexamethasone [6]: +++
atrophy rescue, Myostatin [6]: +++
